Measurements published in US7439232B2, “Heteroaryl 5-thio-β-D-glucopyranoside derivatives and therapeutic agents for diabetes containing the same” (Taisho Pharmaceutical Co., Ltd., priority 2003, dated 2008).

SMILES	melting point
CCc1ccc(Cc2c(O[C@@H]3S[C@H](CO)[C@@H](O)[C@H](O)[C@H]3O)nn(C(C)C)c2C)cc1 [Compound 1, 4′-(4′-ethylbenzyl)-1′-isopropyl-5′-methyl-1′H-pyrazol-3′-yl 5-thio-β-D-glucopyranoside]	54 to 58.5 °C
COc1ccc(Cc2c(O[C@@H]3S[C@H](CO)[C@@H](O)[C@H](O)[C@H]3O)n[nH]c2C)cc1F [Compound 4, 4′-[(3′-fluoro-4′-methoxyphenyl)methyl]-5′-methyl-1′H-pyrazol-3′-yl 5-thio-β-D-glucopyranoside]	145 to 147 °C
CCOC(=O)OC[C@H]1S[C@@H](Oc2nn(C(=O)OCC)c(C)c2Cc2ccc(OC)cc2)[C@H](O)[C@@H](O)[C@@H]1O [Compound 8, 1′-ethoxycarbonyl-4′-[(4′-methoxyphenyl)methyl]-5′-methyl-pyrazol-3′-yl 6-O-ethoxycarbonyl-5-thio-β-D-glucopyranoside]	106 to 110 °C
CCc1ccc(Cc2ccncc2O[C@@H]2S[C@H](CO)[C@@H](O)[C@H](O)[C@H]2O)cc1 [Compound 20, 4′-(4′-ethylbenzyl)pyridin-3′-yl 5-thio-β-D-glucopyranoside]	184 to 187 °C
CCc1ccc(Cc2nccnc2O[C@@H]2S[C@H](CO)[C@@H](O)[C@H](O)[C@H]2O)cc1 [Compound 23, 3′-(4′-ethylbenzyl)-1′H-pyrazin-2′-yl 5-thio-β-D-glucopyranoside]	181 to 183.5 °C
CCc1ccc(Cc2c(C)nc(C)nc2O[C@@H]2S[C@H](CO)[C@@H](O)[C@H](O)[C@H]2O)cc1 [Compound 24, 5′-(ethylbenzyl)-2′,6′-dimethyl-3′H-pyrimidin-4′-yl 5-thio-β-D-glucopyranoside]	143 to 147.5 °C
OCCc1ccc(Cc2ccncc2O[C@@H]2S[C@H](CO)[C@@H](O)[C@H](O)[C@H]2O)cc1 [Compound 32, 4′-[4′-(2′-hydroxyethyl)benzyl]pyridin-3′-yl 5-thio-β-D-glucopyranoside]	194.5 to 195 °C
